Assay results: US8765961B2, “Near infrared fluorescent imaging agent” (FUJIFILM Corporation, priority 2009, dated 2014)

Biological target: T1, albumin (Bos taurus, UniProt P02769)
T1 construct: The test substance was dissolved to 5 μg/mL in calf serum; from tissue; host or cells: calf serum
Test: Serum protein binding rate test by ultracentrifugation, albumin fraction
Type: in vitro ADME
Details: 5 μg/mL in calf serum, 37° C., density gradient centrifugation, HPLC
Method: The test substance was dissolved to 5 μg/mL in calf serum, vibrated for 20 minutes at 37° C., and subjected to density gradient centrifugation (1,000,000×g, 24 h) using NaBr. Following the centrifugation, the dye concentrations in the albumin fraction, lipoprotein fraction, and the remaining fractions were quantified by HPLC.

T1 sequence (P02769 25-607): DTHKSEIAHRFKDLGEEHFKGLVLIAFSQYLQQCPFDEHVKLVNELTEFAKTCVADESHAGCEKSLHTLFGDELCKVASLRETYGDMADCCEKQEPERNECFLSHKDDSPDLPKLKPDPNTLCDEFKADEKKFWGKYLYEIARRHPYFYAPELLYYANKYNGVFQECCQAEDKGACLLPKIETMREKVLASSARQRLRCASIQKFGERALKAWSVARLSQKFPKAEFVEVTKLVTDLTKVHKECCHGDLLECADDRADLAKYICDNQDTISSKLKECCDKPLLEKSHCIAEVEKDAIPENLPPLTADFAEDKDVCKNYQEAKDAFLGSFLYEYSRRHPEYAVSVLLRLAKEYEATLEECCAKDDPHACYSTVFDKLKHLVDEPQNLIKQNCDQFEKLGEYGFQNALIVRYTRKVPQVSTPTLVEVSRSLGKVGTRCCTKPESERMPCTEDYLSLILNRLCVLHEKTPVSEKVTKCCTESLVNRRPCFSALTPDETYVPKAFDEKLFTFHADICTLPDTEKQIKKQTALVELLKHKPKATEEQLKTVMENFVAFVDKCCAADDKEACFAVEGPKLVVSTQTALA

In the case of `CC1(C)C(/C=C/C=C/C=C/C=C2\N(CCCCS(=O)(=O)O)c3ccc4ccccc4c3C2(C)C)=[N+](CCCCS(=O)(=O)[O-])c2ccc3ccccc3c21` [ICG, indocyanine green], the “Protein binding rate (%) Albumin” value is reported as 18%.
